Reference: paper PMC4301629 (PLoS ONE, 2015)
pKi: −log10 of the molar value.

How the values were obtained:
[1] = test system: α1A-AR; assay: Ca2+ transient response (FLIPR, fluo3) in α1A-AR transduced HEK-293/EBNA cells; assay type: cell-based; conditions: 100 μM Iso, α1A-AR_HEK-293/EBNA
Description: (§1) Prior to experiments, cells were transduced with baculovirus strains designed for transient expression of α1A-AR or aldehyde oxidase (negative control). This was performed by incubating cells with virus (MOI 100–150) for 3 to 4 h, followed by exchange into fresh serum free growth medium supplemented with 4 mM sodium butyrate (NaBu). Cells were grown for another 14 to 18 h and then examined for agonist-evoked responses in transient Ca^2+ release, IP accumulation or pERK activation assays. The surface receptor expression density was determined by flow cytometry via immunofluorescence labeling of an N-terminal HA epitope tag on the receptor and radioligand binding in partially purified membranes.
(§2) Cells were resuspended in Hank’s balanced salt solution (Invitrogen) supplemented with 2 mM CaCl2, 10 mM HEPES pH 7.4, 2.5 mM probenecid, plus 1g/L each of glucose and bovine serum albumin (BSA), and seeded in poly-D-lysine coated 96-well black plates with transparent bottom (Costar) at a density of 50,000 cells/0.1 mL per well. Cells were then incubated for 1 h at 37°C with an additional 0.1 mL of buffer containing 4 μM fluo3-AM that was diluted from a stock solution containing 1 mM fluo3-AM dye in DMSO with 10% pluronic acid. After dye loading incubation, plates were washed twice with 100 μL of buffer and refilled with 100 μL of assay buffer. In experiments testing the effect of antagonists, 25 μL of buffer from wells of washed cells were replaced with 25 μL of vehicle or 4× antagonist solution. Pre-incubation of ligand with dye-loaded cells proceeded for 5–30 minutes immediately prior to measurements of agonist-evoked responses. Agonist-evoked Ca^2+ mobilization responses of cell populations were monitored at room temperature simultaneously in all wells of the assay plate using the plate-imaging fluorometric reader FLIPR (MDS Analytical Technologies, Sunnyvale, CA). […] The amplitudes of Ca^2+ transient responses are reported as ΔF/F0, or fold-change in Ca^2+ dye fluorescence relative to the baseline signal ΔF/F0 = (F-F0)/F0 +1 (where ΔF is maximal fluorescence intensity observed following agonist application, F0 = baseline fluorescence, or average intensity measured over the 10 s interval prior to agonist application). Image acquisition rates were varied from 1 Hz during the first 100 s of measurements to 0.5 Hz for the remaining time of the recording.
(§3) Graphs shown reflect either pooled or representative data (see figure legends). For concentration-response analysis, results from Ca^2+ mobilization experiments were plotted as ΔF/F0 vs. agonist concentration and fit to a sigmoidal concentration-response equation using the GraphPad Prism software package. In cases where biphasic concentration-response curves were observed data were fit to a two-site concentration-response model: F(X)=R0+(Rmax−R0)[Fr1/(1+10^X-logEC50,1)+(1−Fr1)/(1+10^X-logEC50,2)] (1) , where X is the logarithm of the agonist concentration, R0 and Rmax are respectively the response minimum and maximum; Fr1 is the response fraction attributable to receptor characterized by half effective concentration of the first response phase (EC50,1), with the reminder response attributable to the second half effective concentration (EC50,2). For radioligand binding experiments, B max values were calculated from maximum binding using the equation B max = (SB × ([…] + [L])/[L]), where SB is the specific binding expressed as fmol per mg of membrane protein, and [L] is the ligand concentration.

[2] = target: T1, α1A-AR (Homo sapiens, UniProt P35348); assay: as above; assay type: cell-based; set-up: expressed in transfected cells; host or cells: HEK-293/EBNA (baculovirus transduction, NaBu induction)
T1 sequence (P35348 1-466): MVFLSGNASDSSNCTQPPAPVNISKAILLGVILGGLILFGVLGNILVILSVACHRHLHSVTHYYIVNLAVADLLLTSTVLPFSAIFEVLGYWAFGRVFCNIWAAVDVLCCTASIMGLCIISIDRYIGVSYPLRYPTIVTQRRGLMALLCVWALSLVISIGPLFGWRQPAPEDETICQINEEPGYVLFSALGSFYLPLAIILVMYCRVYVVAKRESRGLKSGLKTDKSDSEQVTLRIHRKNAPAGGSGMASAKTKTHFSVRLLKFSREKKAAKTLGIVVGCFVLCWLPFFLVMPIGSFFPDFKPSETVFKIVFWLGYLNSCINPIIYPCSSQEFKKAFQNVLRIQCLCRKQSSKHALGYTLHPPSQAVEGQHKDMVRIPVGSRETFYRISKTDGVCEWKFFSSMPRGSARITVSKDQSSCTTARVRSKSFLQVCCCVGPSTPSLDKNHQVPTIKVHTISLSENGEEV
Description: as §1, §2, §3

[3] = target: β3-AR; conditions: in presence of GTP; cited from earlier work
[4] = test system: HEK293/EBNA cells; assay: IP accumulation (IP-One HTRF) in untransduced HEK-293/EBNA cells; assay type: cell-based

CC(C)NCC(O)c1ccc(O)c(O)c1 (stereo not shown) [Iso, isoproterenol]
decline from peak amplitude within 100 sec [1]: > 75% | delay from addition of agonist to the rise in Ca2+ [1]: 5 to 10 s | maximal response amplitude ΔF/F0 in presence of ICI 118,551 [2]: 1.3 | magnitude ΔF/F0 in presence of RS100329 ([2]; 10 nM RS100329 pretreatment): 1.2 | ΔF/F0, β2-AR-dependent phase ([2]; pertussis toxin 100 ng/mL, 18 h): 1.5 | ΔF/F0, β2-AR-dependent phase ([2]; vehicle (no PTX), Fig. 4B): 1.3 | diminution of low potency phase of response in absence of extracellular Ca2+ ([2]; α1A-AR transduced cells): approximately 50% | pKi [3]: 5.80 | EC50 IP ([4]; HEK293/EBNA untransduced): BQL | IP formation ([4]; untransduced cells, data not shown): not detectable
